Data on 26 compounds can be found in patent EP1038880B1, “Androstanes and pregnanes for allosteric modulation of GABA receptor” (priority 1994, dated 1995).

For this assay, the target named is GR complex. In words: [35S]TBPS binding assay (inhibition of [35S]TBPS binding, cerebral cortex P2 homogenate). Particulars: for IC50: 2 nM [35S]TBPS, rat cerebral cortex P2 homogenate; for IMAX: maximum inhibition of [35S]TBPS binding. On the set-up: species or system rat. Here is the method: We performed several experiments to determine the nature of the modulation of [^35S]TBPS as affected by the compounds of the invention.
These procedures were performed as follows:
Brains from male Sprague-Dawley rats were removed immediately following sacrifice and the cerebral cortices dissected over ice. […] Briefly, the cortices were gently homogenized in 0.32 M sucrose followed by centrifugation at 1000 x g for 10 minutes. The supernatant was collected and centrifuged at 9000 x g for 20 minutes. The resultant P2 pellet was suspended as a 10% (original wet weight/volume) suspension in 50 mM Na/K phosphate buffer (pH 7.4) 200 mM NaCl to form the homogenate.
One hundred microliter […] aliquots of the P2 homogenate (0.5 milligrams (mg) protein) were incubated with 2 nanomolar (nM) [^35S]TBPS (70-110 curies/millimole; New England Nuclear, Boston, MA) in the presence or absence of the naturally occurring steroids or their synthetic derivatives to be tested. The tested compounds were dissolved in dimethylsulfoxide (Baker Chem. Co., Phillipsbury, NJ) and added to the incubation mixture in 5 µL aliquots. The incubation mixture was brought to a final volume of 1 mL with buffer. Non-specific binding was defined as binding in the presence of […] TBPS. The effect and specificity of GABA (Sigma Chem. Co., St. Louis, MO) was evaluated by performing all assays in the presence of GABA plus (+)bicuculline (Sigma Chem. Co.). maintained at 25°C for 90 minutes (steady state conditions) were terminated by rapid filtration through glass fiber filters (No. 32, Schleicher and Schuell, Keene, NH). Filter-bound radioactivity was quantitated by liquid scintillation spectrophotometry.
Various compounds were screened to determine their potential as modulators of [^35S]TBPS binding in vitro. These assays were performed in accordance with the above discussed procedures. […] It is an indication of a compound's in vitro potency. Maximum inhibition is an indication of a compound's in vitro efficacy.

In turn, `CC(=O)[C@H]1CC[C@H]2[C@@H]3CC[C@@H]4C[C@@](O)(C#Cc5ccc(F)cc5F)CC[C@]4(C)[C@H]3CC[C@]12C` [3β-(2', 4'-difluorophenylethynyl)-3α-hydroxy-5β-pregnan-20-one] came in with an IC50 of 0.109 µM and an IMAX of 102%.

For `CC(=O)C#C[C@@]1(O)CC[C@@]2(C)[C@@H](CC[C@@H]3[C@@H]2CC[C@]2(C)[C@@H](C(C)=O)CC[C@@H]32)C1` [3α-Hydroxy-3β-[3'-oxobutynyl]-5α-pregnan-20-one], the concentration for half-maximal inhibition (IC50) amounted to 6.51 µM and the IMAX is listed as 104%.

With `CC(=O)[C@H]1CC[C@H]2[C@@H]3CC[C@H]4C[C@@](O)(C#CCC(C)O)CC[C@]4(C)[C@H]3CC[C@]12C` (mixture of isomers) [3β-[4'(R/S)-hydroxy-1'-pentynyl]-3α-hydroxy-5α-pregnan-20-one], the IC50 worked out at 0.178 µM and the IMAX stood at 101%.

In turn, `CC(=O)OCC#C[C@@]1(O)CC[C@@]2(C)[C@H](CC[C@@H]3[C@@H]2CC[C@]2(C)[C@@H](C(C)=O)CC[C@@H]32)C1` [3β-(3'-acetoxy-1'-propynyl)-3α-hydroxy-5β-pregnan-20-one] showed an IMAX of 104%.

In the case of `CC12CCC(O)(C#CCO)CC1CCC1C2CCC2(C)C(C(=O)Cn3ccnn3)CCC12` (stereo not drawn) [3α-hydroxy-3β-(3-hydroxypropyn-1-yl)-21-(1,2,3-triazol-1-yl)-5β-pregnan-20-one], the 50% inhibitory concentration (IC50) amounted to 1.09 µM and the IMAX turned out to be 101%.

`CC(=O)[C@H]1CC[C@H]2[C@@H]3CC[C@@H]4C[C@@](O)(C#CCCCC(N)=O)CC[C@]4(C)[C@H]3CC[C@]12C` [3β-(5'-Carboxamidopentynyl)-3α-hydroxy-5β-pregnan-20-one] returned an IC50 of 3.09 µM and an IMAX of 102%.

Consider `CC(=O)OCCCCC#C[C@@]1(O)CC[C@@]2(C)[C@H](CC[C@@H]3[C@@H]2CC[C@]2(C)[C@@H](C(C)=O)CC[C@@H]32)C1` [3β-(6'Acetoxy-1'-hexynyl)-3α-hydroxy-5β-pregnan-20-one], for which the concentration for half-maximal inhibition (IC50) worked out at 0.306 µM and the IMAX stood at 99%.

The compound `CC(=O)c1cccc(C#C[C@@]2(O)CC[C@@]3(C)[C@H](CC[C@@H]4[C@@H]3CC[C@]3(C)[C@@H](C(C)=O)CC[C@@H]43)C2)c1` [3β-(3'-Acetylphenylethynyl)-3α-hydroxy-5β-pregnan-20-one] displayed an IC50 of 0.062 µM and an IMAX of 100%.

`CC(=O)[C@H]1CC[C@H]2[C@@H]3CC[C@@H]4C[C@@](O)(C#CCO)CC[C@]4(C)[C@H]3CC[C@]12C` [3β-(3'-hydroxy-1'-propynyl)-3α-hydroxy-5β-pregnan-20-one]: the IC50 stood at 0.137 µM and the IMAX amounted to 93%.

For the compound “3β-(4'-Aminophenyl)ethynyl-3β-hydroxy-5β-20-one”, the IC50 stood at 22.5 µM and the IMAX is 103%.

With `CC12CCC(O)(C#CCO)CC1CCC1C2CCC2(C)C(C(=O)Cn3nccn3)CCC12` (stereo not drawn) [3α-Hydroxy-3β-(3-hydroxypropyn-1-yl)-21-(1,2,3-triazol-2-yl)-5β-pregnan-20-one], the IC50 is 0.43 µM and the IMAX stood at 107%.

`CC(=O)[C@H]1CC[C@H]2[C@@H]3CC[C@@H]4C[C@@](O)(CCc5ccccc5)CC[C@]4(C)[C@H]3CC[C@]12C` [3α-Hydroxy-3β-(2'-phenylethyl)-5β-pregnan-20-one] showed an IC50 of 0.135 µM and an IMAX of 98%.

For `CC(=O)[C@H]1CC[C@H]2[C@@H]3CC[C@@H]4C[C@@](O)(C#CCc5ccccc5)CC[C@]4(C)[C@H]3CC[C@]12C` [3α-Hydroxy-3β-(3'-phenyl-1'-propynyl)-5β-pregnan-20-one], the half-maximal inhibitory concentration (IC50) was 0.103 µM and the IMAX was determined as 95%.

In turn, `C[C@]12CC[C@@H](O)C[C@@H]1CC[C@@H]1[C@@H]2CC[C@]2(C)[C@@H](C(=O)Cn3ccnc3)CC[C@@H]12` [3α-hydroxy-21-(1'-imidazolyl)-5α-pregnan-20-one] yielded an IC50 of 0.071 µM and an IMAX of 99%.

Regarding `C[C@]12C[C@H](O)[C@H]3[C@@H](CCC4=CC(=O)CC[C@@]43C)[C@@H]1CC[C@@H]2C(=O)CO` [4-Pregnen-11β,21-diol-3,20-dione, reference compound], the IC50 was more than 1000 µM and the IMAX was determined as 30%.

Consider `CC(=O)C1CCC2C3CCC4CC(O)(C#CCCO)CCC4(C)C3CCC12C` (stereo not drawn) [3β-(4'-hydroxybutynyl)-3α-hydroxy-5α-pregnan-20-one], for which the IMAX was 95%.

Compound `C[C@@]1(O)CC[C@@]2(C)[C@@H](CC[C@@H]3[C@@H]2CC[C@]2(C)[C@@H](C(=O)Cn4cnc5ccccc54)CC[C@@H]32)C1` [21-(1' benzimidazolyl)-3α-hydroxy-3β-methyl-5α-pregnan-20-one] had an IC50 of 0.109 µM and an IMAX of 95%.

As for `CC(=O)[C@H]1CC[C@H]2[C@@H]3CC[C@@H]4C[C@@](O)(C#CCn5ccnc5)CC[C@]4(C)[C@H]3CC[C@]12C` [3α-Hydroxy-3β-[3'-(N-imidazolyl)-1'-propynyl)-5β-pregnan-20-one], the half-inhibitory concentration (IC50) stood at 2.72 µM and the IMAX came out at 107%.

`CC(=O)C1CCC2C3CCC4CC(O)(C#CCn5cncn5)CCC4(C)C3CCC12C` (stereo not drawn) [3α-Hydroxy-3β-[3'-(1H-1,2,4,-triazol-1yl)-1'-propynyl]-5β-pregnan-20-one]: the IC50 was determined as 0.843 µM and the IMAX was 99%.

`C[C@]12CC[C@](O)(C#CCCO)C[C@H]1CC[C@@H]1[C@@H]2CC[C@]2(C)[C@@H](C(=O)Cn3ccnn3)CC[C@@H]12` [3α-hydroxy-3β-(4-hydroxybutyn-1-yl)-21-(1,2,3-triazol-1-yl)-5β-pregnan-20-one] displayed a half-inhibitory concentration (IC50) of 0.079 µM and an IMAX of 96%.

As to `CC(=O)[C@H]1CC[C@H]2[C@@H]3CC[C@@H]4C[C@@](O)(C#Cc5ccc(C(F)(F)F)cc5)CC[C@]4(C)[C@H]3CC[C@]12C` [3α-hydroxy-3β-(4'-trifluoromethylphenylethynyl)-5β-pregnan-20-one], the IC50 was 0.052 µM and the IMAX came out at 87%.

The compound `COc1ccc(C#CC2(O)CCC3(C)C(CCC4C3CCC3(C)C(C(C)=O)CCC43)C2)cc1` (stereo not drawn) [3β-(4'-methoxyphenylethynyl)-3α-hydroxy-5β-pregnan-20-one] returned an IC50 of 0.047 µM and an IMAX of 89%.

As for `CC(=O)C1CCC2C3CCC4CC(O)(C#CCCO)CCC4C3CCC12C` (stereo not drawn) [3β-(4'-hydroxy-1'-butynyl)-3α-hydroxy-5β-19-norpregnan-20-one], the 50% inhibitory concentration (IC50) was 0.022 µM and the IMAX was 102%.

`C[C@]12CC[C@@H](O)C[C@@H]1CC[C@@H]1[C@@H]2CC[C@]2(C)[C@@H](C(=O)Cn3ccc(=O)[nH]c3=O)CC[C@@H]12` [3α-Hydroxy-21-(1'-uracil)-5α-pregnan-20-one]: the 50% inhibitory concentration (IC50) was 0.434 µM and the IMAX is given as 90%.

On to `CC(=O)[C@H]1CC[C@H]2[C@@H]3CC[C@@H]4C[C@@](O)(C#Cc5cccnc5)CC[C@]4(C)[C@H]3CC[C@]12C` [3α-Hydroxy-3β-(3-pyridyl)ethynyl-5β-pregnan-20-one], for which the half-inhibitory concentration (IC50) stood at 0.138 µM and the IMAX stood at 100%.

Consider `C[C@]12CC[C@@H](O)C[C@H]1CC[C@@H]1[C@@H]2CC[C@]2(C)[C@@H](C(=O)Cn3cnc4cncnc43)CC[C@@H]12` [3α-hydroxy-21-(9'H-purin-9'-yl-5β-pregnan-20-one], for which the IC50 is 0.069 µM and the IMAX was determined as 59%.
